Source: patent US20240197700A1, “Methods and Compositions for Treating Lysosomal Storage Disorders” (Sanford Health, priority 2021, published 2024)
Entries after “also recorded” stand apart in the source; their conditions may differ.

Tests used:
Cln3^Δex7/8 mice = test: Autofluorescent storage material (ASM) in brain of Cln3^Δex7/8 mice; format: in vivo, mouse; settings: 16 weeks; for auto florescent storage material: LM11A-31 0.6 mg/mL in drinking water
Protocol: FIG. 16. Effects of treatment with LM11A-31 on auto florescent storage material. […] Upon sacrifice, one hemisphere of brain was sectioned at 50 microns on a vibratome; DAB staining immunohistochemistry was then performed using anti-GFAP (Dako, Z0334; 1:5000), anti-CD68 (AbD Serotec, MCA1957; 1:2000), anti-rabbit biotinylated (Vector Labs. BA-1000 1:1000), and anti-rat (Vector Labs, BA-9400 1:1000). Sections were imaged and analyzed using an Aperio Digital Pathology Slide Scanner (AT2) and associated software. The flash-frozen brain was sectioned into 16 μm slices and placed on slides. Slides were post-fixed for 20 minutes in chilled 10% neutral buffered formalin (NBF) and underwent serial ethanol dehydration. To quantify accumulation of autofluorescent storage material, DAPI was applied to slides and coverslipped with aqueous mounting media (Dako Faramount, Agilent, S302580-2). Sections were imaged using a Nikon NiE microscope and associated software. […] Nested one-way ANOVA. Mean±S.E.M. Sidak's multiple comparisons test. Compared to the wild type vehicle treated group. #p<0.05, ##p<0.01, ###p<0.001, ####p<0.0001. Compared to mutant vehicle treated group. *p<0.05, **p<0.01, ***p<0.001, ****p<0.0001. Scale bar=100 μm.
Since LM11A-31 reduced lysosomal pathology and increased lysosomal function in cell models of diverse lysosomal storage disorders, we asked whether treatment with LM11A-31 could reduce histopathological markers of disease severity in animal models of CLN3-Batten disease. […] Sections were imaged and analyzed using an Aperio Digital Pathology Slide Scanner (AT2) and associated software. […] To quantify accumulation of autofluorescent storage material, DAPI was applied to slides and coverslipped with aqueous mounting media (Dako Faramount, Agilent, S302580-2). […]
Specific experimental details are included in figure legends. […] Body weight was measured at 4, 6, 8, 12, and 16 weeks of age. […]

TFE3 = TFE3 nuclear translocation time course in transfected N2A cells; format: cell-based, mouse; settings: for TFE3 nuclear translocation (i.e., activation): overall statement, GFP-TFE3 transfected N2A cells, acute treatment
Protocol: Treatment with AF38469 stimulates TFE3 nuclear translocation as monitored via time course study. For (A) and (B), wild type N2A cells were plated and transfected with a pEGFP-N1-TFE3 plasmid for a 24-hour incubation. Cells were treated with vehicle or AF38469 (40 nM, 400 nM) for three hours then immunocytochemistry was performed with anti-GFP (Abcam, ab13970) and 4′, -diamidino-2-phenylindole-dihydrochloride (DAPI). Cells were imaged on the Nikon AIR confocal microscope. For (C), wild type N2A cells were plated and transfected with a pEGFP-N1-TFE3 plasmid for a 24-hour incubation. Cells were dyed and imaged on the CellInsight™ CX7 High-Content Screening Platform (CX7) then treated with media containing vehicle or AF38469 (40 nM, 400 nM). Cells were imaged every 30 minutes for three hours on the CX7 with incubation between imaging sessions, and results were quantified. The statistics were analyzed using Graphpad Prism™. One-way ANOVA. Mean±S.E.M. Dunnett's multiple comparisons test compared to the vehicle treated group. *p<0.05, **p<0.01, ***p<0.001, ****p<0.0001. […] TFEB is a transcription factor that stimulates transcription of genes that are necessary for lysosomal biogenesis and function. Thus, increased TFE3 nuclear translocation is expected to stimulate lysosomal biogenesis and function.
Since LM11A-31 improves lysosomal health and function across diverse cell models of lysosomal storage disorders, we asked whether the drug could be activating transcriptional networks that regulate lysosomal function. The transcription factors TFEB and TFE3 are master regulators of lysosomal biogenesis and function. We hypothesized that LM11A-31 could exert benefits by modulating the nuclear translocation of TFEB and/or TFE3. We tested this in an in vitro system in which GFP fusions of TFEB or TFE3 are expressed and monitored with live imaging (FIG. 15A).

| Molecule | auto florescent storage material (Cln3^Δex7/8 mice; S1BF, CA3, or motor cortex) | auto florescent storage material (Cln3^Δex7/8 mice; VPM/VPL and visual cortex) | TFE3 nuclear translocation (TFE3; 100 nM and 1 μM, 90 minutes of incubation) | TFE3 nuclear translocation (i.e., activation) (TFE3) | TFE3 nuclear translocation (TFE3; 40 nM and 400 nM, 90 minutes of incubation, N2A cells, vs vehicle) | TFE3 nuclear translocation (TFE3; 40 nM, 180 minutes of incubation, N2A cells) | TFE3 nuclear translocation (TFE3; 400 nM, 180 minutes of incubation, N2A cells) | accumulation of autofluorescent storage material (ASM) (Cln3^Δex7/8 mice; semaglutide 2.571 μg/mouse, 25.71 μg/mouse s.c. three times a week, S1BF, CA3, VPM/VPL) |
| --- | --- | --- | --- | --- | --- | --- | --- | --- |
| CC[C@H](C)[C@H](N)C(=O)NCCN1CCOCC1 [LM11A-31, N-[2-(morpholin-4-yl)ethyl]-L-isoleucinamide] | did not decrease | reduced ASM to levels that were not statistically distinguishable from wild type; also recorded: slight decrease | significant increase | stimulated | – | – | – | – |
| Cc1cccc(NC(=O)c2ccc(C(F)(F)F)cc2C(=O)O)n1 [AF38469, 2-((6-methylpyridin-2-yl)carbamoyl)-5-(trifluoromethyl)benzoic acid] | – | – | – | stimulates | significant increase | return to baseline | trend towards increased nuclear translocation | – |
| semaglutide | – | – | – | – | – | – | – | had no significant effect |
